pEC50: −log10 of the molar value.
Assays:
[1] = biological target: T1, short form of the GPR120 receptor (Homo sapiens, UniProt Q5NUL3); test: Human GPR120 DiscoveRx PathHunter β-Arrestin assay, Procedure β-arrestin B; format: cell-based; settings: PathHunter CHO-K1 GPR120S β-Arrestin cell line, 5000 cells/well
T1 construct: host or cells: PathHunter CHO-K1 GPR120S β-Arrestin Cell Line
Text: The binding of an agonist (medium/long chain fatty acids or small molecule agonists) to the G-protein-coupled receptor GPR120 activates phospholipase C, leading to release of intracellular Ca^+2 through the generation of inositol 1,4,5-trisphosphate (InsP3 or IP3). GPR120 activation can also trigger intracellular signaling via recruitment of β-Arrestin. In the present method, agonist-induced activation of the human GPR120 receptor is monitored through the use of PathHunter CHO-K1 GPR120 β-Arrestin Cell Line engineered by DiscoveRx, as detailed below. The cell lines are designed to co-express both the ProLink/Enzyme Donor (PK)-tagged GPCR and the Enzyme […] (EA)-tagged Beta-Arrestin fusion proteins. Upon GPR120 receptor stimulation/activation, the EA-tagged β-Arrestin portion is translocated to the tagged receptor, where the two enzyme fragments are brought within close proximity. Under these conditions, these fragments can interact and form an active Beta-gal enzyme complex through Enzyme Fragment Complementation (EFC). This active Beta-gal complex can enzymatically hydrolyse the substrate to produce a detectable light signal; therefore, activation as a function of agonist concentration can be expressed as an EC50 value to determine relative compound activities. This in vitro assay therefore serves to assess compound agonist activity of the GPR120.
In Procedure β-arrestin B the cells used were PathHunter CHO-K1 GPR120S β-Arrestin Cell Line, expressing the short form of the GPR120 receptor (Accession #NM_181745), with 5000 cells/well.
The selected CHO-K1 GPR120 β-Arrestin cells were cultured in Ham's F12 media supplemented with 10% fetal bovine serum (FBS), 1% Glutamine, 1×p/s, 800 μg/ml G418 and 300 μg/ml Hygromycin B (for selection). Cell stocks were maintained and grown in a sub-confluent state using standard cell culture procedures. The day before the experiment, the cells were harvested with non-enzymatic cell dissociation buffer and re-suspended in complete growth media at the desired concentration. A Corning 384-plate was then seeded with the proper number of cells in a volume of 25 μL, per well. The seeded plates were incubated overnight at 37° C.
On the day of the experiment, the Assay Buffer containing (a) HBSS with Ca^++ and Mg^++, (b) 20 mM HEPES, and (c) 0.1% BSA stabilizer (pH 7.4) was prepared. The growth medium was gently removed from the cell plates and 20 μL of Assay Buffer added to each well. The plate was then incubated at 37° C. for 60 mins. Test compounds were serially diluted in Assay Buffer to desired concentrations (more particularly, to one or more of the following μM concentrations: 25 μM, 12.5 μM, 6.25 μM, 3.125 μM, 1.562 μM, 0.781 μM, 0.391 μM, 0.195 μM, 0.098 μM, 0.049 μM, 0.024 μM, 0.012 μM). Five μl of compound dilution was then added to each well and the plate incubated at 37° C. for 90 mins. The detection reagents were prepared according to the manufacture's instruction. Twelve μL of the detection reagents were added to each well and the plate incubated at room temperature for 60 mins.
The plates were read on an EnVision instrument, using Protocol name: Luminescence, Plate type: 384 Costar, Measurement height: 3 mm, Measurement time: 1 s, Aperture: 384 Plate aperture. The % activity relative to the positive control was calculated using the following equation:
The % Activity values were plotted versus the concentration of test compound and fitted to a sigmoidal dose-response curve with a Hill slope=1 (fixed value) using nonlinear regression with GraphPad Prism 5.0 to calculate the EC50 values. The Fitting Equation was: Y=Bottom+(Top−Bottom)/(1+10^((LogEC50−X)*HillSlope)), where X is the log of the concentration and Y is the response.

Human GPR120 short form = biological target: T2, Human GPR120 short form (Homo sapiens, UniProt Q5NUL3); test: Human GPR120 calcium flux assay, Procedure Calcium B; format: cell-based; settings: HEK-293 cells expressing human GPR120 short form, 4200 cells/well, FLIPR
T2 construct: expressed in transfected cells
T2 sequence (Q5NUL3 1-361): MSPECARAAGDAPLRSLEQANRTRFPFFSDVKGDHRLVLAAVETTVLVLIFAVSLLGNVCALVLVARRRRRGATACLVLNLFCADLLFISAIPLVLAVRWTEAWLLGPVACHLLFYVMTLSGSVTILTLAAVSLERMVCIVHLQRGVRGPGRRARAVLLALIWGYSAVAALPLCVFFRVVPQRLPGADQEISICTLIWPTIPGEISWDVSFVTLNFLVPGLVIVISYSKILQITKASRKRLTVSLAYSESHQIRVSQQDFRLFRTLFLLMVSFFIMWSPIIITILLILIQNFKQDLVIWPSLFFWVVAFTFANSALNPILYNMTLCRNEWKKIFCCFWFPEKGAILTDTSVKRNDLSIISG

T1 sequence (P32121 whole entry partner, one chain of several): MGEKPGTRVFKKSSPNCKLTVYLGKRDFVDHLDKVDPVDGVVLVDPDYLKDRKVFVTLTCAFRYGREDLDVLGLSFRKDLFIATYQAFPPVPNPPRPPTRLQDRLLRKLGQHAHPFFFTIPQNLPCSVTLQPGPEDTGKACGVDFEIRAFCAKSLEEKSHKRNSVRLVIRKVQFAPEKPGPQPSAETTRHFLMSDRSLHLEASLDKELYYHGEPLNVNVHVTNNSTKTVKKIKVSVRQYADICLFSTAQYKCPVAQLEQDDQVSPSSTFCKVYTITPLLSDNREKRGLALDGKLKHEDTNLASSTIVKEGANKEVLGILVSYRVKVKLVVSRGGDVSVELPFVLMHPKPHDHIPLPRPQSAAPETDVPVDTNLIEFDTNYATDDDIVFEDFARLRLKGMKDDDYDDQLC

Row | Structure (SMILES) | pEC50 [1] | pEC50 (Human GPR120 short form)
1 | O=C(O)CCc1cc(F)c(OCc2c(C(F)(F)F)ccn2-c2ccc(Cl)cc2F)c(F)c1 [Compound 71, 3-(4-{[1-(4-Chloro-2-fluorophenyl)-3-(trifluoromethyl)-1H-pyrrol-2-yl]methoxy}-3,5-difluorophenyl)propanoic acid] | 6.20 | 6.75
2 | Cc1ccc(-n2ccc(C(F)(F)F)c2COc2ccc(CCC(=O)O)c(C)c2C)c(F)c1 [Compound 73, 3-(4-{[1-(2-Fluoro-4-methylphenyl)-3-(trifluoromethyl)-1H-pyrrol-2-yl]methoxy}-2,3-dimethylphenyl)propanoic acid] | 6.13 | 6.68
3 | Cc1ccc(-n2ccc(C(F)(F)F)c2COc2c(F)cc(CC(C)C(=O)O)cc2F)cc1 (centres unmarked) [Compound 60, 3-(3,5-difluoro-4-[[1-(4-methylphenyl)-3-(trifluoromethyl)-1H-pyrrol-2-yl]methoxy]phenyl)-2-methylpropanoic acid] | 6.26 | 6.73
4 | Cc1ccc(-n2ccc(C(F)(F)F)c2COc2c(F)cc(CCC(=O)O)cc2F)c(F)c1 [Compound 72, 3-(3,5-Difluoro-4-{[1-(2-fluoro-4-methylphenyl)-3-(trifluoromethyl)-1H-pyrrol-2-yl]methoxy}phenyl)propanoic acid] | 6.20 | 6.93
5 | CC(Cc1cc(F)c(OCc2c(C(F)(F)F)ccn2-c2ccc(Cl)c(F)c2)c(F)c1)C(=O)O (centres unmarked) [Compound 69, 3-(4-[[1-(4-chloro-3-fluorophenyl)-3-(trifluoromethyl)-1H-pyrrol-2-yl]methoxy]-3,5-difluorophenyl)-2-methylpropanoic acid] | 6.20 | 6.31
6 | Cc1c(CCC(=O)O)ccc(OCc2c(C(F)(F)F)ccn2-c2ccc(Cl)cc2F)c1C [Compound 74, 3-(4-{[1-(4-Chloro-2-fluorophenyl)-3-(trifluoromethyl)-1H-pyrrol-2-yl]methoxy}-2,3-dimethylphenyl)propanoic acid] | 6.10 | 6.78
7 | CC(Cc1cc(F)c(OCc2c(C(F)(F)F)ccn2-c2ccc(F)cc2)c(F)c1)C(=O)O (centres unmarked) [Compound 65, 3-(3,5-difluoro-4-[[1-(4-fluorophenyl)-3-(trifluoromethyl)-1H-pyrrol-2-yl]methoxy]phenyl)-2-methylpropanoic acid] | 6.09 | 6.26
8 | Cc1c(CCC(=O)O)ccc(OCc2c(C(F)(F)F)ccn2-c2ccc(F)c(F)c2)c1C [Compound 78, 3-(4-{[1-(3,4-Difluorophenyl)-3-(trifluoromethyl)-1H-pyrrol-2-yl]methoxy}-2,3-dimethylphenyl)propanoic acid] | 5.85 | 6.52
9 | O=C(O)CCc1cc(F)c(OCc2c(C(F)(F)F)ccn2-c2ccc(F)cc2F)c(F)c1 [Compound 75, 3-(4-{[1-(2,4-Difluorophenyl)-3-(trifluoromethyl)-1H-pyrrol-2-yl]methoxy}-3,5-difluorophenyl)propanoic acid] | 6.24 | 6.81
10 | CCc1ccc(-n2ccc(C(F)(F)F)c2COc2c(F)cc(CC(C)C(=O)O)cc2F)cc1 (centres unmarked) [Compound 61, 3-(4-[[1-(4-ethylphenyl)-3-(trifluoromethyl)-1H-pyrrol-2-yl]methoxy]-3,5-difluorophenyl)-2-methylpropanoic acid] | 6.19 | 6.63
11 | Cc1c(CCC(=O)O)ccc(OCc2c(C(F)(F)F)ccn2-c2ccc(F)cc2F)c1C [Compound 77, 3-(4-{[1-(2,4-Difluorophenyl)-3-(trifluoromethyl)-1H-pyrrol-2-yl]methoxy}-2,3-dimethylphenyl)propanoic acid] | 5.98 | 6.58
12 | O=C(O)CCc1cc(F)c(OCc2c(C(F)(F)F)ccn2-c2ccc(F)c(F)c2)c(F)c1 [Compound 76, 3-(4-{[1-(3,4-Difluorophenyl)-3-(trifluoromethyl)-1H-pyrrol-2-yl]methoxy}-3,5-difluorophenyl)propanoic acid] | 5.95 | 6.76
13 | CC(Cc1cc(F)c(OCc2c(C(F)(F)F)ccn2-c2ccc(Cl)cc2)c(F)c1)C(=O)O (centres unmarked) [Compound 59, 3-(4-[[1-(4-chlorophenyl)-3-(trifluoromethyl)-1H-pyrrol-2-yl]methoxy]-3,5-difluorophenyl)-2-methylpropanoic acid] | 6.38 | 6.54

The next lines start with the values.

Row | pEC50 [1] | pEC50 (Human GPR120 short form) | Structure (SMILES)
14 | 6.69 | 6.43 | O=C(O)CCc1cc(F)c(OCc2c(C(F)(F)F)ccn2-c2ccc(Cl)c(F)c2)c(F)c1 [Compound 67, 3-(4-[[1-(4-chloro-3-fluorophenyl)-3-(trifluoromethyl)-1H-pyrrol-2-yl]methoxy]-3,5-difluorophenyl)propanoic acid]
15 | 7.16 | 7.10 | O=C(O)CCc1cc(F)c(OCc2c(C(F)(F)F)ccn2-c2ccc(Cl)cc2)c(F)c1 [Compound 70, 3-(4-((1-(4-chlorophenyl)-3-(trifluoromethyl)-1H-pyrrol-2-yl)methoxy)-3,5-difluorophenyl)propanoic acid]
16 | 6.39 | 6.50 | Cc1ccc(-n2ccc(C(F)(F)F)c2COc2ccc(CCC(=O)O)c(C)c2C)cc1F [Compound 66, 3-(4-{[1-(3-Fluoro-4-methylphenyl)-3-(trifluoromethyl)-1H-pyrrol-2-yl]methoxy}-2,3-dimethylphenyl)propanoic acid]
17 | 6.51 | 6.45 | Cc1c(CCC(=O)O)ccc(OCc2c(C(F)(F)F)ccn2-c2ccc(Cl)c(F)c2)c1C [Compound 68, 3-(4-{[1-(4-Chloro-3-fluorophenyl)-3-(trifluoromethyl)-1H-pyrrol-2-yl]methoxy}-2,3-dimethylphenyl)propanoic acid]
18 | 6.58 | 6.67 | Cc1ccc(-n2ccc(C(F)(F)F)c2COc2c(F)cc(CC(C)C(=O)O)cc2F)cc1F (centres unmarked) [Compound 64, 3-(3,5-difluoro-4-[[1-(3-fluoro-4-methylphenyl)-3-(trifluoromethyl)-1H-pyrrol-2-yl]methoxy]phenyl)-2-methylpropanoic acid]
19 | 7.02 | 6.58 | Cc1ccc(-n2ccc(C(F)(F)F)c2COc2c(F)cc(CCC(=O)O)cc2F)cc1F [Compound 62, 3-(3,5-difluoro-4-[[1-(3-fluoro-4-methylphenyl)-3-(trifluoromethyl)-1H-pyrrol-2-yl]methoxy]phenyl)propanoic acid]

From patent publication US8912227B1, “Bicyclic pyrrole derivatives useful as agonists of GPR120” (Janssen Pharmaceutica NV, priority 2014, dated 2014)
